Assay results published in patent US20090263410A1, “USE OF TGF-B1 INHIBITOR PEPTIDES IN THE PREPARATION OF AN IMMUNE RESPONSE MODULATING AGENT” (Proyecto De Biomedicina Cima, S.L., priority 2005, published 2009).

Legend:
RAd-LacZ = assay: Induction of anti-RAd LacZ antibodies (ELISA) after immunization with heat-inactivated adenovirus; assay type: in vivo, BALB/c mice
Description: To analyse the immunomodulating effect of peptide p144 on the humoral response, female BALB/c mice (Harlan, Barcelona) were used, of between 6 and 8 weeks old. For the induction of specific antibodies, recombinant adenovirus (RAd-LacZ) inactivated by heat in a bath at 100° C. for 10 minutes was inoculated.
Three mice were immunized per group, by the intraperitoneal of a mixture of 200 μl which contained 1×10^8 pfu of the inactivated RAd-LacZ adenovirus, physiological serum (PS) or with […] of peptide p144, all emulsified in Freund's complete adjuvant (FCA) in a 1:1 volumetric ratio as indicated in table M4. Thirty days after the first immunization, the animals were reimmunized with the same mixture, but emulsified in Freund's incomplete adjuvant (FIA). Blood samples were taken from the retroorbital plexus on days 15 and 45 to quantify the anti-adenovirus antibodies generated in each animal.
In order to study the possible induction of antigen intolerance in the mice treated with p144, on day 50 after the I^st injection, the mice were inoculated intravenously with 4×10^8 pfu of active RAd-LacZ in 100 μl of RPMI-1640, including a new group of mice (cont iv), which had only received the intravenous dose of active LacZ adenovirus. Blood samples were taken after 7 days in all groups. Next, the animals were sacrificed to include liver samples in OCT® (Tissue-Tek®, SAKURA, the Netherlands) to the subsequent evaluation of LacZ expression in the liver.
The detection of antibodies in serum against RAd-LacZ was performed by ELISA assays using Maxisorp® flat-bottomed 96-well plates (Nunc, Roskilde, Denmark), based on the streptavidin-biotin system using 2,2′-azino-bis-3-ethylbenzthiazoline-6-sulphonic acid (ABTS) as developer. The plates were incubated throughout the night at 4° C. with 50 μl per well of a solution of 75 μl of RAd-LacZ 10^10 pfu/ml in 10 ml 0.1 M Na2CO3 (pH=10.5). […] 100 μl per well were added and after one hour the plate was read at 405 nm in a Multiskan Plus MKII reader (Labsystem, Helsinki, Finland).

CT26 cells = assay: Pulmonary metastasis model (intravenous CT26), survival; assay type: in vivo, BALB/c mice; conditions: 5×10^5 CT26 i.v. on day 10; 50 μg AH1 in FIA s.c. day 0; p144 50 μg i.p. alternate days, days 4-20 or 10-20
Text: It is speculated that the neutralization of TGF-β1, once the immune response has been induced, could have a beneficial effect on the evolution thereof.
It is known from previous experience that immunization with only DTc AH1 produced a certain delay in the appearance of tumours after the intravenous administration of CT26 cells. For this reason, in a survival experiment, the inclusion of p144 was compared at different times after immunization with AH1. Thus, the animals in group (i) just received the administration of CT26 cells, the animal groups (ii), (iii) and (iv) were immunized on day 0 by subcutaneous route with 50 μg of AH1 in FIA (Freund's incomplete adjuvant) and they were then administered 5×10^5 CT26 cells by intravenous route on day 10. Group (iii) further received 50 μg of p144 in 500 μl of PS (physiological serum) by intraperitoneal route on alternate days between days 4 and 20. Group (iv), as with group (iii), received 50 μg of p144 in 500 μl of PS by intraperitoneal route on alternate days, only between days 10 and 20.

“p144: peptide inhibiting TGF-β1 whose amino acid sequence corresponds to SEQ ID NO: 1 (TSLDASIIWAMMQN; Synthetic Construct from human TGB-Beta1 type III receptor.Domain730-743)” was tested, and the “antibody titer after intravenous infection with active RAd LacZ” value (RAd-LacZ; 7 days after 4×10^8 pfu RAd LacZact i.v., no p144 at challenge, versus group immunized without p144) was “approximately equalled”, the “anti-RAd LacZ antibody production after first immunization” value (RAd-LacZ; day 15, RAd LacZinact in presence or absence of p144, ELISA) was “no quantifiable effect” and the “antibody titer against RAd LacZ after second immunization” value (RAd-LacZ; p144 50 μg in immunization mixture, versus inactivated RAd LacZ only) was “clearly lower”. The survival / mortality (CT26 cells) was “reinforces the survival effect”.
